# Test results from US6086918A, “Oral peptide pharmaceutical products” (Unigene Laboratories, Inc., priority 1998, dated 2000).
# Assays:
# [1] = Pharmacokinetics of oral calcitonin (10.5 mg) in humans; format: in vivo, human; settings: 10 milligrams of salmon calcitonin alone administered to humans
# Protocol: The capsules were coated for 20 min with hydroxypropylmethylcellulose phthalate 50 in a pan coater and stored at 4° C. Fasted subjects were given 1 capsule followed by a glass of orange juice in the morning of the study. Samples of blood were taken 15 minutes before taking the capsules and at the indicated times after taking the calcitonin capsule. The concentration of calcitonin in blood was determined by competitive radioimmunoassay.
# [2] = Applicant's internal comparative tests of oral formulation, sCT versus PTH; format: in vivo; settings: oral formulation of the invention
# [3] = Blood levels of salmon calcitonin after direct injection of active components into duodenum, ilium or colon; format: in vivo; settings: active components injected directly into the duodenum
# Excerpt: The acid is believed to lower the local intestinal pH (where the active agent has been released) to levels below the optimal range for many intestinal proteases. This decrease in pH reduces the proteolytic activity of the intestinal proteases, thus affording protection to the peptide from potential degradation. The activity of these proteases is diminished by the temporarily acidic environment provided by the invention. It is preferred that sufficient acid be provided that local intestinal pH is lowered temporarily to 5.5 or below, preferably 4.7 or below and more preferably 3.5 or below. The sodium bicarbonate test described below (in the section captioned "the pH-Lowering Agent") is indicative of the required acid amount. […] The absorption enhancers of the invention synergistically promote peptide absorption into the blood while conditions of reduced proteolytic activity prevail.
# [4] = cited from earlier work
compound,measurement,setting,value
CC(C)C[C@H](NC(=O)[C@H](CCCCN)NC(=O)CNC(=O)[C@H](CC(C)C)NC(=O)[C@@H](NC(=O)[C@@H]1CSSC[C@H](N)C(=O)N[C@@H](CO)C(=O)N[C@@H](CC(N)=O)C(=O)N[C@@H](CC(C)C)C(=O)N[C@@H](CO)C(=O)N[C@@H]([C@@H](C)O)C(=O)N1)C(C)C)C(=O)N[C@@H](CO)C(=O)N[C@@H](CCC(N)=O)C(=O)N[C@@H](CCC(=O)O)C(=O)N[C@@H](CC(C)C)C(=O)N[C@@H](Cc1c[nH]cn1)C(=O)N[C@@H](CCCCN)C(=O)N[C@@H](CC(C)C)C(=O)N[C@@H](CCC(N)=O)C(=O)N[C@H](C(=O)N[C@@H](Cc1ccc(O)cc1)C(=O)N1CCC[C@H]1C(=O)N[C@@H](CCCNC(=N)N)C(=O)N[C@H](C(=O)N[C@@H](CC(N)=O)C(=O)N[C@H](C(=O)NCC(=O)N[C@@H](CO)C(=O)NCC(=O)N[C@H](C(=O)N1CCC[C@H]1C(N)=O)[C@@H](C)O)[C@@H](C)O)[C@@H](C)O)[C@@H](C)O [Salmon calcitonin],serum levels of salmon calcitonin,[1],no detectable serum levels
same,bioavailability compared with parathyroid hormone,[2],significantly exceeds that of parathyroid hormone
same,Tmax for blood levels of salmon calcitonin,[3],5 to 15 min
same,peak levels at which some patients report gastrointestinal distress,[4]; in vivo,≥ 200 picograms per milliliter
same,detectable blood levels after injection,[4]; injection at conventional dosages,no detectable blood levels more than two hours after injection
same,peak levels at which effective against osteoporosis,"[4]; nasal, 200 International units",≥ 10 picograms per milliliter
same,half-life,[4]; subcutaneous administration in man,20 to 40 min
same,peak serum concentration,"[4]; subcutaneous, 100 International units",about 250 picograms per milliliter
